Assay results as given in the supplement of paper PMC10307832.

Experiments:
Assay in all cases: relative viability (nuclei count vs DMSO), 5 days (fraction); higher = more cells survive
A-427 = test system: A-427
Summary of the method: (§1)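 For relative viability, nuclei counts in treated wells were divided by those in vehicle wells. Lung cancer cell lines had been pin-tool dosed in 1536-well plates the day after seeding and cultured for 5 days, then fixed and stained in one step (final 0.05% Triton X-100, 1% formaldehyde, 1 ug/ml Hoechst) and imaged at 4×. Doses were one drug alone or a fixed anchor-drug dose plus five library-drug doses (not always all listed) in √10 steps, and values are duplicate-plate medians.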

ChaGo-K-1 = test system: ChaGo-K-1
Summary of the method: as §1

EKVX = test system: EKVX
Summary of the method: as §1

EMC-BAC-2 = test system: EMC-BAC-2
Summary of the method: as §1

H3255 = test system: H3255
Summary of the method: as §1

HCC-366 = test system: HCC-366
Summary of the method: as §1

LK-2 = test system: LK-2
Summary of the method: as §1

LOU-NH91 = test system: LOU-NH91
Summary of the method: as §1

NCI-H1666 = test system: NCI-H1666
Summary of the method: as §1

NCI-H1734 = test system: NCI-H1734
Summary of the method: as §1

NCI-H1755 = test system: NCI-H1755
Summary of the method: as §1

NCI-H1975 = test system: NCI-H1975
Summary of the method: as §1

NCI-H2170 = test system: NCI-H2170
Summary of the method: as §1

NCI-H23 = test system: NCI-H23
Summary of the method: as §1

NCI-H441 = test system: NCI-H441
Summary of the method: as §1

NCI-H596 = test system: NCI-H596
Summary of the method: as §1

PC-3 [JPC-3] = test system: PC-3 [JPC-3]
Summary of the method: as §1

SW 900 = test system: SW 900
Summary of the method: as §1

Structure (SMILES): Cc1sc2c(c1C)C(c1ccc(Cl)cc1)=N[C@@H](CC(=O)OC(C)(C)C)c1nnc(C)n1-2 [JQ1] + NC(=O)Nc1cc(-c2cccc(F)c2)sc1C(=O)N[C@H]1CCCNC1 [AZD7762] (partner 0.2 µM)
- relative viability (A-427; first compound 0.04 µM): 0.749
- relative viability (A-427; first compound 0.1265 µM): 0.611
- relative viability (A-427; first compound 0.4 µM): 0.594
- relative viability (A-427; first compound 1.265 µM): 0.516
- relative viability (A-427; first compound 4 µM): 0.416
- relative viability (ChaGo-K-1; first compound 0.04 µM): 0.875
- relative viability (ChaGo-K-1; first compound 0.1265 µM): 0.89
- relative viability (ChaGo-K-1; first compound 0.4 µM): 0.899
- relative viability (ChaGo-K-1; first compound 1.265 µM): 0.821
- relative viability (ChaGo-K-1; first compound 4 µM): 0.536
- relative viability (EKVX; first compound 0.04 µM): 0.721
- relative viability (EKVX; first compound 0.1265 µM): 0.794
- relative viability (EKVX; first compound 0.4 µM): 1.03
- relative viability (EKVX; first compound 1.265 µM): 0.793
- relative viability (EKVX; first compound 4 µM): 0.455
- relative viability (EMC-BAC-2; first compound 0.04 µM): 1.08
- relative viability (EMC-BAC-2; first compound 0.1265 µM): 0.869
- relative viability (EMC-BAC-2; first compound 0.4 µM): 0.975
- relative viability (EMC-BAC-2; first compound 1.265 µM): 0.725
- relative viability (EMC-BAC-2; first compound 4 µM): 0.627
- relative viability (H3255; first compound 0.04 µM): 0.851
- relative viability (H3255; first compound 0.1265 µM): 0.67
- relative viability (H3255; first compound 0.4 µM): 0.71
- relative viability (H3255; first compound 1.265 µM): 0.411
- relative viability (H3255; first compound 4 µM): 0.277
- relative viability (HCC-366; first compound 0.04 µM): 0.305
- relative viability (HCC-366; first compound 0.4 µM): 0.23
- relative viability (HCC-366; first compound 1.265 µM): 0.146
- relative viability (HCC-366; first compound 4 µM): 0.0976
- relative viability (LK-2; first compound 0.04 µM): 0.464
- relative viability (LK-2; first compound 0.1265 µM): 0.388
- relative viability (LK-2; first compound 0.4 µM): 0.229
- relative viability (LK-2; first compound 1.265 µM): 0.101
- relative viability (LK-2; first compound 4 µM): 0.128
- relative viability (LOU-NH91; first compound 0.04 µM): 0.759
- relative viability (LOU-NH91; first compound 0.1265 µM): 0.609
- relative viability (LOU-NH91; first compound 0.4 µM): 0.664
- relative viability (LOU-NH91; first compound 1.265 µM): 0.379
- relative viability (LOU-NH91; first compound 4 µM): 0.407
- relative viability (NCI-H1666; first compound 0.04 µM): 0.869
- relative viability (NCI-H1666; first compound 0.1265 µM): 0.793
- relative viability (NCI-H1666; first compound 0.4 µM): 0.65
- relative viability (NCI-H1666; first compound 1.265 µM): 0.48
- relative viability (NCI-H1666; first compound 4 µM): 0.488
- relative viability (NCI-H1734; first compound 0.04 µM): 0.544
- relative viability (NCI-H1734; first compound 0.1265 µM): 0.53
- relative viability (NCI-H1734; first compound 0.4 µM): 0.47
- relative viability (NCI-H1734; first compound 1.265 µM): 0.281
- relative viability (NCI-H1734; first compound 4 µM): 0.273
- relative viability (NCI-H1755; first compound 0.04 µM): 0.533
- relative viability (NCI-H1755; first compound 0.1265 µM): 0.387
- relative viability (NCI-H1755; first compound 0.4 µM): 0.565
- relative viability (NCI-H1755; first compound 1.265 µM): 0.507
- relative viability (NCI-H1755; first compound 4 µM): 0.433
- relative viability (NCI-H1975; first compound 0.04 µM): 0.678
- relative viability (NCI-H1975; first compound 0.1265 µM): 0.412
- relative viability (NCI-H1975; first compound 0.4 µM): 0.767
- relative viability (NCI-H1975; first compound 1.265 µM): 0.526
- relative viability (NCI-H1975; first compound 4 µM): 0.41
- relative viability (NCI-H2170; first compound 0.04 µM): 0.785
- relative viability (NCI-H2170; first compound 0.1265 µM): 0.564
- relative viability (NCI-H2170; first compound 0.4 µM): 0.739
- relative viability (NCI-H2170; first compound 1.265 µM): 0.431
- relative viability (NCI-H2170; first compound 4 µM): 0.379
- relative viability (NCI-H23; first compound 0.04 µM): 0.208
- relative viability (NCI-H23; first compound 0.1265 µM): 0.21
- relative viability (NCI-H23; first compound 0.4 µM): 0.215
- relative viability (NCI-H23; first compound 1.265 µM): 0.127
- relative viability (NCI-H23; first compound 4 µM): 0.105
- relative viability (NCI-H441; first compound 0.04 µM): 1.07
- relative viability (NCI-H441; first compound 0.1265 µM): 1.16
- relative viability (NCI-H441; first compound 0.4 µM): 1.04
- relative viability (NCI-H441; first compound 1.265 µM): 0.369
- relative viability (NCI-H441; first compound 4 µM): 0.249
- relative viability (NCI-H596; first compound 0.04 µM): 1.02
- relative viability (NCI-H596; first compound 0.1265 µM): 0.898
- relative viability (NCI-H596; first compound 0.4 µM): 0.704
- relative viability (NCI-H596; first compound 1.265 µM): 0.632
- relative viability (NCI-H596; first compound 4 µM): 0.373
- relative viability (PC-3 [JPC-3]; first compound 0.04 µM): 0.709
- relative viability (PC-3 [JPC-3]; first compound 0.1265 µM): 0.849
- relative viability (PC-3 [JPC-3]; first compound 0.4 µM): 0.497
- relative viability (PC-3 [JPC-3]; first compound 1.265 µM): 0.527
- relative viability (PC-3 [JPC-3]; first compound 4 µM): 0.438
- relative viability (SW 900; first compound 0.04 µM): 0.562
- relative viability (SW 900; first compound 0.1265 µM): 0.556
- relative viability (SW 900; first compound 0.4 µM): 0.309
- relative viability (SW 900; first compound 1.265 µM): 0.2
- relative viability (SW 900; first compound 4 µM): 0.147
